Measured values published in PubChem BioAssay (NCI).
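Step 1: Grow cells in 96-well plates. Step 2: Expose to compound for 48 hours at 5 concentrations. Step 3: Interpolate endpoints linearly; if unreached, use highest concentration. GI50 = concentration required for 50% inhibition of growth. TGI is the concentration that stops growth completely.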

Columns and labels:
Assay in all cases: DTP human tumour cell line panel, 48 h
[1] = system: 786-0 renal
[2] = system: A498 renal
[3] = system: A549 NSCLC
[4] = system: ACHN renal
[5] = system: BT-549 breast
[6] = system: CAKI-1 renal
[7] = system: CCRF-CEM leukemia
[8] = system: COLO 205 colon
[9] = system: DU-145 prostate
[10] = system: EKVX NSCLC
[11] = system: HCC-2998 colon
[12] = system: HCT-116 colon
[13] = system: HCT-15 colon
[14] = system: HOP-62 NSCLC
[15] = system: HOP-92 NSCLC
[16] = system: HS 578T breast
[17] = system: HT29 colon
[18] = system: IGROV1 ovarian
[19] = system: K-562 leukemia
[20] = system: KM12 colon
[21] = system: LOX IMVI melanoma
[22] = system: M14 melanoma
[23] = system: MALME-3M melanoma
[24] = system: MDA-MB-231 breast
[25] = system: MDA-MB-435
[26] = system: MOLT-4 leukemia
[27] = system: NCI-H226 lung
[28] = system: NCI-H23 lung
[29] = system: NCI-H460 lung
[30] = system: NCI-H522 lung
[31] = system: NCI/ADR-RES ovarian
[32] = system: OVCAR-3 ovarian
[33] = system: OVCAR-4 ovarian
[34] = system: OVCAR-5 ovarian
[35] = system: OVCAR-8 ovarian
[36] = system: PC-3 prostate
[37] = system: RPMI-8226 leukemia
[38] = system: RXF 393 renal
[39] = system: SF-268 CNS
[40] = system: SF-295 CNS
[41] = system: SF-539 CNS
[42] = system: SK-MEL-2 melanoma
[43] = system: SK-MEL-28 melanoma
[44] = system: SK-MEL-5 melanoma
[45] = system: SK-OV-3 ovarian
[46] = system: SN12C renal
[47] = system: SNB-19 CNS
[48] = system: SNB-75 CNS
[49] = system: SR leukemia
[50] = system: SW-620 colon
[51] = system: TK-10 renal
[52] = system: U251 CNS
[53] = system: UACC-257 melanoma
[54] = system: UACC-62 melanoma
[55] = system: UO-31 renal

SMILES: C=C1C(=O)O[C@H]2[C@H]1CC/C(COC(=O)NCCc1c[nH]c3ccc(Cl)cc13)=C\CC[C@@]1(C)O[C@@H]21
- GI50 [1]: 1380 nM
- TGI [1]: 2790 nM
- GI50 [2]: 3.39 µM
- TGI [2]: 14.7 µM
- GI50 [3]: 2280 nM
- TGI [3]: 5.84 µM
- GI50 [4]: 1540 nM
- TGI [4]: 2880 nM
- GI50 [5]: 1440 nM
- TGI [5]: 2990 nM
- GI50 [6]: 1480 nM
- TGI [6]: 2820 nM
- GI50 [7]: 583 nM
- TGI [7]: 3.07 µM
- GI50 [8]: 1850 nM
- TGI [8]: 3.59 µM
- GI50 [9]: 1610 nM
- TGI [9]: 3.25 µM
- GI50 [10]: 1730 nM
- TGI [10]: 3.53 µM
- GI50 [11]: 1960 nM
- TGI [11]: 4.03 µM
- GI50 [12]: 1560 nM
- TGI [12]: 2970 nM
- GI50 [13]: 1160 nM
- TGI [13]: 2660 nM
- GI50 [14]: 2180 nM
- TGI [14]: 5.48 µM
- GI50 [15]: 1400 nM
- TGI [15]: 2840 nM
- GI50 [16]: 3.21 µM
- TGI [16]: 9.76 µM
- GI50 [17]: 1460 nM
- TGI [17]: 3.24 µM
- GI50 [18]: 1550 nM
- TGI [18]: 3.11 µM
- GI50 [19]: 1100 nM
- TGI [19]: 5.95 µM
- GI50 [20]: 2640 nM
- TGI [20]: 7.32 µM
- GI50 [21]: 1280 nM
- TGI [21]: 2680 nM
- GI50 [22]: 1610 nM
- TGI [22]: 3.13 µM
- GI50 [23]: 1780 nM
- TGI [23]: 3.44 µM
- GI50 [24]: 1840 nM
- TGI [24]: 3.44 µM
- GI50 [25]: 1520 nM
- TGI [25]: 3 µM
- GI50 [26]: 1710 nM
- TGI [26]: 5.27 µM
- GI50 [27]: 1920 nM
- TGI [27]: 3.64 µM
- GI50 [28]: 1790 nM
- TGI [28]: 3.49 µM
- GI50 [29]: 2200 nM
- TGI [29]: 4.64 µM
- GI50 [30]: 1690 nM
- TGI [30]: 3.35 µM
- GI50 [31]: 2740 nM
- TGI [31]: 9.77 µM
- GI50 [32]: 1770 nM
- TGI [32]: 3.83 µM
- GI50 [33]: 1500 nM
- TGI [33]: 3.05 µM
- GI50 [34]: 1970 nM
- TGI [34]: 4.19 µM
- GI50 [35]: 1600 nM
- TGI [35]: 3.26 µM
- GI50 [36]: 1720 nM
- TGI [36]: 3.35 µM
- GI50 [37]: 1200 nM
- TGI [37]: 4.21 µM
- GI50 [38]: 1540 nM
- TGI [38]: 2940 nM
- GI50 [39]: 1770 nM
- TGI [39]: 3.37 µM
- GI50 [40]: 6.53 µM
- TGI [40]: 20.3 µM
- GI50 [41]: 1750 nM
- TGI [41]: 3.32 µM
- GI50 [42]: 1630 nM
- TGI [42]: 3.15 µM
- GI50 [43]: 1790 nM
- TGI [43]: 3.43 µM
- GI50 [44]: 1830 nM
- TGI [44]: 3.33 µM
- GI50 [45]: 13.2 µM
- TGI [45]: 26 µM
- GI50 [46]: 1640 nM
- TGI [46]: 3.17 µM
- GI50 [47]: 3.98 µM
- TGI [47]: 14.8 µM
- GI50 [48]: 1330 nM
- TGI [48]: 2970 nM
- GI50 [49]: 944 nM
- TGI [49]: 5.95 µM
- GI50 [50]: 1820 nM
- TGI [50]: 4.26 µM
- GI50 [51]: 1590 nM
- TGI [51]: 2970 nM
- GI50 [52]: 1800 nM
- TGI [52]: 3.31 µM
- GI50 [53]: 1720 nM
- TGI [53]: 3.19 µM
- GI50 [54]: 1610 nM
- TGI [54]: 3.07 µM
- GI50 [55]: 1310 nM
- TGI [55]: 2590 nM
